The structures appear in SMILES notation. Where a name gives a salt, the structure may show the parent alone.

This assay concerns the target PAI-1 (Homo sapiens, UniProt P05121). As to the kind of experiment: PAI-1 inhibition in the S2251 chromogenic substrate assay (PAI functional assay). The assay is classed as biochemical. The note with it: for INHIBITION OF PAI-1 (degree of inhibition): Table 1, first part, unit assumed; for inhibition at 20 µM / inhibition at 100 µM / inhibition at 50 µM: Table 1, second part, read-out: INHIBITION OF PAI-1 (degree of inhibition). The method, then: In this assay, a compound is incubated with PAI-1 prior to addition to the tPA assay system. Inhibition of PAI-1 results in the production of plasmin from plasminogen. […]
Compounds of formula (A) were tested in a PAI chromogenic substrate assay. […] In turn, the plasmin cleaved the chromogenic substrate S2251 (Kabi-Vitrum) producing pNA (p-nitroaniline) which was detected scectrophotometrically at 405 nm.

Chain of PAI-1 (P05121 24-402): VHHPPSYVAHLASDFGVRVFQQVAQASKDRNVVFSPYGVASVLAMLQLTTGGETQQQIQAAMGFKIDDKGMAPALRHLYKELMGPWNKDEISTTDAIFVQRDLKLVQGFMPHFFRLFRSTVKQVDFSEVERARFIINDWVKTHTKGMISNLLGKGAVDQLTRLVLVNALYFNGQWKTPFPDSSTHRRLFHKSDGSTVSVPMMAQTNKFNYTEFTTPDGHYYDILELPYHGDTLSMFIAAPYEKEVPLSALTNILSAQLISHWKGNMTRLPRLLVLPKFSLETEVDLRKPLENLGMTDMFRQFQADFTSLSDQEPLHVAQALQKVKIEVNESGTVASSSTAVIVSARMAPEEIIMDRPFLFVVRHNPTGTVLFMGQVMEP

For `CN(C)CCN(C)Cc1ccc(/C=c2\[nH]c(=O)/c(=C/c3ccccc3)[nH]c2=O)cc1` [Compound 1982, (3Z,6Z)-3-Benzylidene-6-(4-(N-methyl-N-(2-dimethylaminoethyl)aminomethylbenzylidene-2,5-piperazinedione hydrochloride], the INHIBITION OF PAI-1 (degree of inhibition) is 1% (6.25 μm); 6% (12.5 μm); 28% (25 μm); 49% (50 μm); 48% (100 μm).

In the case of `CN1CCC(N(C)Cc2ccc(/C=c3\[nH]c(=O)/c(=C/c4ccccc4)[nH]c3=O)cc2)CC1` [Compound 1983], the INHIBITION OF PAI-1 (degree of inhibition) by setting is: (6.25 μm) 0%; (12.5 μm) 0%; (25 μm) 0%; (50 μm) 14%; (100 μm) 34%.

Turning to `CN(C)CCCOc1ccc(/C=c2\[nH]c(=O)/c(=C/c3ccc(CN(C)C)cc3)[nH]c2=O)cc1` [Compound 5023], the inhibition at 20 µM came out at 1%.

Regarding `CN(C)CCCOc1ccc(/C=c2\[nH]c(=O)/c(=C/c3ccc(Cn4ccnc4)cc3)[nH]c2=O)cc1` [Compound 5026, (3Z,6Z)-3-(4-(3-Dimethylaminopropoxy)benzylidene)-6-(4-(1-imidazolyl)methylbenzylidene)-2,5-piperazinedione], the inhibition at 20 µM is 10% and the inhibition at 100 µM is 34%.

With `CN(C)CCCOc1ccc(/C=c2\[nH]c(=O)/c(=C/c3ccncc3)[nH]c2=O)cc1` [Compound 5027], the inhibition at 20 µM is 8%, the inhibition at 50 µM is 8% and the inhibition at 100 µM was determined as 12%.

As to `CN(C)CCCOc1ccc(/C=c2\[nH]c(=O)/c(=C/c3cccnc3)[nH]c2=O)cc1` [Compound 5028, (3Z,6Z)-6-(4-(3-Dimethylaminopropoxy)benzylidene)-3-(3-pyridylmethylene)-2,5-piperazinedione], the inhibition at 20 µM was 4%, the inhibition at 50 µM was found to be 4% and the inhibition at 100 µM came to 11%.

For `CN(C)CCCOc1ccc(/C=c2\[nH]c(=O)/c(=C/c3ccc(-n4ccnc4)cc3)[nH]c2=O)cc1` [Compound 5030, (3Z,6Z)-3-(4-(3-Dimethylaminopropoxy)benzylidene)-6-(4-(1-imidazolyl)benzylidene)-2,5-piperazinedione], the inhibition at 20 µM was 6%, the inhibition at 50 µM turned out to be 7% and the inhibition at 100 µM amounted to 20%.

With `CN(C)CC(O)COc1ccc(/C=c2\[nH]c(=O)/c(=C/c3ccccc3)[nH]c2=O)cc1` (stereo not shown) [Compound 5032, (3Z,6Z)-6-Benzylidene-3-(4-(3-dimethylamino-2-hydroxypropoxy)benzylidene)-2,5-piperazinedione], the inhibition at 20 µM turned out to be 63%, the inhibition at 50 µM amounted to 62% and the inhibition at 100 µM was determined as 65%.

Turning to `O=c1[nH]/c(=C\c2ccc(OCC(O)CN3CCOCC3)cc2)c(=O)[nH]/c1=C\c1ccccc1` (stereo not shown) [Compound 5040, (3Z,6Z)-6-Benzylidene-3-(4-(2-hydroxy-3-morpholinopropoxy)benzylidene)-2,5-piperazinedione], the inhibition at 20 µM is 0%, the inhibition at 50 µM is 1% and the inhibition at 100 µM was 0%.

With `CN(C)CCCOc1ccc(/C=c2\[nH]c(=O)/c(=C/c3ccco3)[nH]c2=O)cc1` [Compound 5041, (3Z,6Z)-6-(4-(3-Dimethylaminopropoxy)benzylidene)-3-furfurylidene-2,5-piperazinedione], the inhibition at 20 µM was found to be 0%, the inhibition at 50 µM came out at 0% and the inhibition at 100 µM stood at 1%.

As for `CN(C)CCCOc1ccc(/C=c2\[nH]c(=O)/c(=C/c3ccsc3)[nH]c2=O)cc1` [Compound 5042, (3Z,6Z)-6-(4-(3-Dimethylaminopropoxy)benzylidene)-3-(3-Thenylidene)-2,5-piperazinedione], the inhibition at 20 µM amounted to 42%, the inhibition at 50 µM was found to be 64% and the inhibition at 100 µM is 77%.

Take `O=c1[nH]/c(=C\c2ccc(OCC(O)CN3CCN(CCO)CC3)cc2)c(=O)[nH]/c1=C\c1ccccc1` (stereo not shown) [Compound 5043, (3Z,6Z)-6-Benzylidene-3-(4-(2-hydroxy-3-(4-(2-hydroxyethyl)-1-piperazinyl)propoxy)benzylidene)-2,5-piperazinedione]: the inhibition at 20 µM was found to be 1%, the inhibition at 50 µM came to 15% and the inhibition at 100 µM was 21%.

As for `CC(=O)Nc1ccc(/C=c2\[nH]c(=O)/c(=C/c3ccc(OCCCN(C)C)cc3)[nH]c2=O)cc1` [Compound 5048], the inhibition at 20 µM came to 11%, the inhibition at 50 µM came to 19% and the inhibition at 100 µM came out at 55%.

With `CN(C)CCCOc1ccc(/C=c2\[nH]c(=O)/c(=C/c3ccoc3)[nH]c2=O)cc1` [Compound 5052, (3Z,6Z)-6-(4-(3-Dimethylaminopropoxy)benzylidene)-3-(3-Furylmethylene)-2,5-piperazinedione], the inhibition at 20 µM was 86%, the inhibition at 50 µM worked out at 76% and the inhibition at 100 µM is 77%.

Regarding `O=c1[nH]/c(=C\c2ccc(OCCN3CCCC3)cc2)c(=O)[nH]/c1=C\c1ccccc1` [Compound 5053, (3Z,6Z)-6-Benzylidene-3-(4-(2-(1-pyrrolidinyl)ethoxy)benzylidene)2,5-piperazinedione], the inhibition at 20 µM worked out at 56%, the inhibition at 50 µM stood at 64% and the inhibition at 100 µM came to 68%.

In the case of `O=c1[nH]/c(=C\c2ccc(OCCN3CCOCC3)cc2)c(=O)[nH]/c1=C\c1ccccc1` [Compound 5054, (3Z,6Z)-6-Benzylidene-3-(4-(2-morpholinoethoxy)benzylidene)-2,5-piperazinedione], the inhibition at 20 µM stood at 48%, the inhibition at 50 µM amounted to 57% and the inhibition at 100 µM is 5%.

Regarding `O=c1[nH]/c(=C\c2ccc(OCCn3ccnc3)cc2)c(=O)[nH]/c1=C\c1ccccc1` [Compound 5055, (3Z,6Z)-6-Benzylidene-3-(4-(2-(1-imidazolyl)ethoxy)benzylidene)2,5-piperazinedione], the inhibition at 20 µM was found to be 70%, the inhibition at 50 µM was found to be 69% and the inhibition at 100 µM was determined as 69%.

With `O=c1[nH]/c(=C\c2ccc(OCC(O)Cn3ccnc3)cc2)c(=O)[nH]/c1=C\c1ccccc1` (stereo not shown) [Compound 5057, (3Z,6Z)-6-Benzylidene-3-(4-(2-hydroxy-3-(1-imidazolyl)propoxy)benzylidene)-2,5-piperazinedione], the inhibition at 20 µM stood at 37%, the inhibition at 50 µM was found to be 29% and the inhibition at 100 µM is 44%.

Consider `CN(C)CC(=O)NCc1ccc(/C=c2\[nH]c(=O)/c(=C/c3ccccc3)[nH]c2=O)cc1` [Compound 5061, (3Z,6Z)-6-Benzylidene-3-(4-dimethylaminoacetamidomethylbenzylidene)-2,5-piperazinedione], for which the inhibition at 20 µM stood at 60%, the inhibition at 50 µM amounted to 48% and the inhibition at 100 µM stood at 43%.

Regarding `CN(C)CCOc1ccc(/C=c2\[nH]c(=O)/c(=C/c3ccoc3)[nH]c2=O)cc1` [Compound 5062, (3Z,6Z)-6-(4-(2-Dimethylaminoethoxy)benzylidene)-3-(3-furylmethylene)-2,5-piperazinedione], the inhibition at 20 µM came to 87%, the inhibition at 50 µM is 81% and the inhibition at 100 µM was determined as 78%.

For the compound `CN(C)CCOCc1ccc(/C=c2\[nH]c(=O)/c(=C/c3ccsc3)[nH]c2=O)cc1` [Compound 5069, (3Z,6Z)-6-(4-(2-Dimethylaminoethoxymethyl)benzylidene)-3-(3-thenylidene)-2,5-piperazinedione], the inhibition at 20 µM is 75%, the inhibition at 50 µM was found to be 71% and the inhibition at 100 µM amounted to 70%.

`CN(C)CCOc1ccc(/C=c2\[nH]c(=O)/c(=C/c3ccsc3)[nH]c2=O)cc1` [Compound 5071, (3Z,6Z)-6-(4-(2-Dimethylaminoethoxy)benzylidene)-3-(3-thenylidene)-2,5-piperazinedione]: the inhibition at 20 µM worked out at 73%, the inhibition at 50 µM was found to be 82% and the inhibition at 100 µM was determined as 80%.

As to `CSc1ccc(/C=c2\[nH]c(=O)/c(=C/c3ccc(OCCN(C)C)cc3)[nH]c2=O)s1` [Compound 5072, (3Z,6Z)-6-(4-(2-Dimethylaminoethoxy)benzylidene)-3-(5-methylthio-2-thenylidene)-2,5-piperazinedione], the inhibition at 20 µM was 61%, the inhibition at 50 µM is 61% and the inhibition at 100 µM was found to be 60%.

Consider `CN(C)CCSCc1ccc(/C=c2\[nH]c(=O)/c(=C/c3ccoc3)[nH]c2=O)cc1` [Compound 5073, (3Z,6Z)-6-(4-(2-Dimethylaminoethylthiomethyl)benzylidene)-3-(3-furylmethylene)-2,5-piperazinedione], for which the inhibition at 20 µM amounted to 14%, the inhibition at 50 µM stood at 70% and the inhibition at 100 µM worked out at 63%.

With `CN(C)CC(=O)NCc1ccc(/C=c2\[nH]c(=O)/c(=C/c3ccsc3)[nH]c2=O)cc1` [Compound 5074, (3Z,6Z)-6-(4-Dimethylaminoacetamidomethylbenzylidene)-3-(3-thenylidene)-2,5-piperazinedione], the inhibition at 20 µM stood at 26%, the inhibition at 50 µM came out at 57% and the inhibition at 100 µM worked out at 47%.

Regarding `O=c1[nH]/c(=C\c2cc(Cl)sc2Cl)c(=O)[nH]/c1=C\c1ccccc1` [Compound 5075, (3Z,6Z)-3-(2,5-Dichloro-3-thenylidene)-6-benzylidene-2,5-piperazinedione], the inhibition at 20 µM turned out to be 52%, the inhibition at 50 µM came to 88% and the inhibition at 100 µM came to 88%.

Source of the values: patent publication US5891877A, “Pharmaceutical compounds” (Xenova Limited, priority 1996, dated 1999).
